From the NIST ThermoML archive (doi:10.1007/s10765-014-1828-5)

Conditions: 101.33 kPa, Liquid, Oscillating crucible method

[Ca+2].[F-].[F-] [calcium fluoride]
Conditions	viscosity [mPa·s]
1703.3 K	2.932
1703.6 K	2.878
1713.5 K	2.82
1722.7 K	2.77
1732.2 K	2.735
1742.2 K	2.657
1751.6 K	2.623
1760.6 K	2.562
1761.2 K	2.586
1763.4 K	2.571
1770.5 K	2.542
1780.9 K	2.476
1790.5 K	2.432
1800.8 K	2.408
1807.3 K	2.371
1820.5 K	2.34
1832.8 K	2.265
1839.9 K	2.268
1847.7 K	2.223
1858.7 K	2.185
1868.1 K	2.149

[Ba+2].[F-].[F-] [barium difluoride]
Conditions	viscosity [mPa·s]
1620.2 K	3.56
1642.3 K	3.46
1657.3 K	3.309
1682.7 K	3.165
1697.5 K	2.995
1722.7 K	2.899
1723.2 K	2.856
1738.8 K	2.766
1763.4 K	2.665
1779.4 K	2.57
1802.5 K	2.461
1819.5 K	2.368
1842.3 K	2.3
1860.1 K	2.237
1880.4 K	2.172

[F-].[F-].[Mg+2] [magnesium difluoride]
Conditions	viscosity [mPa·s]
1514.7 K	2.416
1534.7 K	2.25
1554.7 K	2.257
1574.1 K	2.09
1613.7 K	2.081
1633.2 K	2.036
1653.4 K	1.98
1673.9 K	1.895
1690.6 K	1.784
1716.7 K	1.763
1731 K	1.758
1751 K	1.68
1773 K	1.632
1792.8 K	1.588
1814.2 K	1.602
1831.8 K	1.552
1853.2 K	1.448

[F-].[F-].[Sr+2] [strontium fluoride]
Conditions	viscosity [mPa·s]
1743.4 K	3.023
1749.8 K	2.953
1750.4 K	2.972
1762.4 K	2.915
1769 K	2.866
1780.9 K	2.804
1788.6 K	2.729
1796.9 K	2.698
1810.3 K	2.628
1817.9 K	2.584
1826.5 K	2.561
1833.2 K	2.512
1846.4 K	2.449
1852.2 K	2.401
1854.3 K	2.405
1864.6 K	2.374
